Columns and labels:
[1] = molecular target: PKR R510Q (Homo sapiens, UniProt P30613, R510Q); experiment: PKR Mutant Assay, AC50 against PKR R510Q; assay type: biochemical; details: mutant PKR R510Q enzyme
Outline: (§1)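 LDH-coupled NADH depletion read as A340 change at room temperature after ADP (0.22-1.65 mM) start. Compounds, tested from 100 μM final in 3-fold steps over 11 points with 1% DMSO, sat 60 min with enzyme (80-400 ng/well), PEP 0.1-0.5 mM and NADH 180 uM in Tris pH 7.5/KCl/MgCl2/DTT/BSA buffer.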

[2] = molecular target: PKR R532W (Homo sapiens, UniProt P30613, R532W); experiment: PKR Mutant Assay, AC50 against PKR R532W; assay type: biochemical; details: mutant PKR R532W enzyme
Outline: as §1

[3] = molecular target: T1, PKR WT (Homo sapiens, UniProt P30613); experiment: PKR WT enzymatic AC50 assay; assay type: biochemical; details: wild type PKR
Outline: as §1

[4] = molecular target: T1, PKR WT; experiment: PKR WT cell based AC50 assay; details: wild type PKR

PKR R510Q, sequence (P30613 whole entry R510Q): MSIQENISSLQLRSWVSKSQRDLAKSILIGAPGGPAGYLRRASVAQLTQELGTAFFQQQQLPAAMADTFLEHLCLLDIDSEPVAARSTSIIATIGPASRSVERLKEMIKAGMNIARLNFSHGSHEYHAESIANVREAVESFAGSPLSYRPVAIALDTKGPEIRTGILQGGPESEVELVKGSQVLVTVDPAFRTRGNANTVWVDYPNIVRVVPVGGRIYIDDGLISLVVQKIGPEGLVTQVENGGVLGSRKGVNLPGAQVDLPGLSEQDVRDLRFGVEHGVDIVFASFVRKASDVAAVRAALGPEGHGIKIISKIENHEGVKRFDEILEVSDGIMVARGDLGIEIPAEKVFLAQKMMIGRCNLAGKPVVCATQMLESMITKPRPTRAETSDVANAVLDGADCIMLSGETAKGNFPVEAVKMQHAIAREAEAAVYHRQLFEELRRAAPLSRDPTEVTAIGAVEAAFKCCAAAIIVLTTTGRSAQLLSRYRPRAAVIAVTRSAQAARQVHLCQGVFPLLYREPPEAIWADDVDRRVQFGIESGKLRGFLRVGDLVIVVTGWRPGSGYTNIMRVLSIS
T1 sequence (P30613 whole entry): as the sequence (P30613 whole entry R510Q) above, with Q510R counted along it
PKR R532W, sequence (P30613 whole entry R532W): as the sequence (P30613 whole entry R510Q) above, with Q510R, R532W counted along it

SMILES	AC50 [1]	AC50 [2]	AC50 [3]	AC50 [4]
CC(C)CC1(O)CCN(C(=O)c2ccc(NS(=O)(=O)c3cccc4nccnc34)cc2)CC1 [Compound 160, N-(4-(4-hydroxy-4-isobutylpiperidine-1-carbonyl)phenyl)quinoxaline-5-sulfonamide]	< 100 nM	< 100 nM	< 100 nM	< 100 nM
O=C(c1ccc(NS(=O)(=O)c2cccc3cccnc23)c(F)c1)N1CCC(O)(Cc2ccccc2)CC1 [Compound 163, N-(4-(4-benzyl-4-hydroxypiperidine-1-carbonyl)-2-fluorophenyl)quinoline-8-sulfonamide]	101 to 1000 nM	< 100 nM	< 100 nM	< 100 nM
O=C(c1ccc(NS(=O)(=O)c2cccc3cccnc23)cc1)N1CCC(O)(c2ncccc2C(F)(F)F)CC1 [Compound 164, N-(4-(4-hydroxy-4-(3-(trifluoromethyl)pyridin-2-yl)piperidine-1-carbonyl)phenyl)quinoline-8-sulfonamide]	101 to 1000 nM	< 100 nM	< 100 nM	< 100 nM
CCCCC1(O)CCN(C(=O)c2ccc(NS(=O)(=O)c3cccc4cccnc34)cc2)CC1 [Compound 167, N-(4-(4-butyl-4-hydroxypiperidine-1-carbonyl)phenyl)quinoline-8-sulfonamide]	< 100 nM	< 100 nM	< 100 nM	< 100 nM
O=C(c1ccc(NS(=O)(=O)c2cccc3cccnc23)cc1)N1CCC(O)(Cc2cccnc2F)CC1 [Compound 168, N-(4-(4-((2-fluoropyridin-3-yl)methyl)-4-hydroxypiperidine-1-carbonyl)phenyl)quinoline-8-sulfonamide]	101 to 1000 nM	< 100 nM	< 100 nM	< 100 nM
O=C(c1ccc(NS(=O)(=O)c2cccc3cccnc23)cc1)N1CCC(O)(Cc2cccc(F)c2F)CC1 [Compound 169, N-(4-(4-(2,3-difluorobenzyl)-4-hydroxypiperidine-1-carbonyl)phenyl)quinoline-8-sulfonamide]	101 to 1000 nM	< 100 nM	< 100 nM	< 100 nM
CC(C)CC1(CO)CCN(C(=O)c2ccc(NS(=O)(=O)c3cccc4cccnc34)cc2)CC1 [Compound 172, N-(4-(4-(hydroxymethyl)-4-isobutylpiperidine-1-carbonyl)phenyl)quinoline-8-sulfonamide]	< 100 nM	< 100 nM	< 100 nM	< 100 nM
CC(C)CC1(O)CCN(C(=O)c2ccc(NS(=O)(=O)c3cccc4scnc34)cc2)CC1 [Compound 173, N-(4-(4-hydroxy-4-isobutylpiperidine-1-carbonyl)phenyl)benzo[d]thiazole-4-sulfonamide]	< 100 nM	< 100 nM	< 100 nM	< 100 nM
Cc1cc(C(=O)N2CCC(O)(c3cccc(F)c3F)CC2)ccc1NS(=O)(=O)c1cccc2nccnc12 [Compound 175, N-(4-(4-(2,3-difluorophenyl)-4-hydroxypiperidine-1-carbonyl)-2-methylphenyl)quinoxaline-5-sulfonamide]	101 to 1000 nM	< 100 nM	< 100 nM	< 100 nM
O=C(c1ccc(NS(=O)(=O)c2cccc3cccnc23)cc1)N1CCC(O)(CC2CC2(F)F)CC1 (stereo not drawn) [Compound 176, N-(4-(4-((2,2-difluorocyclopropyl)methyl)-4-hydroxypiperidine-1-carbonyl)phenyl)quinoline-8-sulfonamide]	101 to 1000 nM	< 100 nM	< 100 nM	< 100 nM
CCCC1(O)CCN(C(=O)c2ccc(NS(=O)(=O)c3cccc4cccnc34)cc2)CC1 [Compound 183, N-(4-(4-hydroxy-4-propylpiperidine-1-carbonyl)phenyl)quinoline-8-sulfonamide]	101 to 1000 nM	< 100 nM	< 100 nM	< 100 nM
O=C(c1ccc(NS(=O)(=O)c2cccc3cccnc23)cc1)N1CCC(O)(Cc2cccnc2)CC1 [Compound 185, N-(4-(4-hydroxy-4-(pyridin-3-ylmethyl)piperidine-1-carbonyl)phenyl)quinoline-8-sulfonamide]	101 to 1000 nM	< 100 nM	< 100 nM	101 to 1000 nM
CC(C)(C)CC1(O)CCN(C(=O)c2ccc(NS(=O)(=O)c3ccc(F)c4cccnc34)cc2)CC1 [Compound 187, 5-fluoro-N-(4-(4-hydroxy-4-neopentylpiperidine-1-carbonyl)phenyl)quinoline-8-sulfonamide]	< 100 nM	< 100 nM	< 100 nM	< 100 nM

Further lines, results first:

AC50 [1]	AC50 [2]	AC50 [3]	AC50 [4]	SMILES
101 to 1000 nM	< 100 nM	< 100 nM	< 100 nM	O=C(c1ccc(NS(=O)(=O)c2cccc3cccnc23)cc1Cl)N1CCC(O)(c2ccccc2Cl)CC1 [Compound 157, N-(3-chloro-4-(4-(2-chlorophenyl)-4-hydroxypiperidine-1-carbonyl)phenyl)quinoline-8-sulfonamide]
101 to 1000 nM	< 100 nM	< 100 nM	< 100 nM	O=C(c1ccc(NS(=O)(=O)c2cccc3cccnc23)cc1)N1CCC(O)(c2cccnc2C(F)(F)F)CC1 [Compound 159, N-(4-(4-hydroxy-4-(2-(trifluoromethyl)pyridin-3-yl)piperidine-1-carbonyl)phenyl)quinoline-8-sulfonamide]
101 to 1000 nM	< 100 nM	< 100 nM	< 100 nM	O=C(c1ccc(NS(=O)(=O)c2cccc3cccnc23)cc1)N1CCC(O)(c2ccncc2Cl)CC1 [Compound 161, N-(4-(4-(3-chloropyridin-4-yl)-4-hydroxypiperidine-1-carbonyl)phenyl)quinoline-8-sulfonamide]
101 to 1000 nM	< 100 nM	< 100 nM	< 100 nM	O=C(c1ccc(NS(=O)(=O)c2cccc3nccnc23)cc1)N1CCC(O)(c2ccccc2Cl)CC1 [Compound 162, N-(4-(4-(2-chlorophenyl)-4-hydroxypiperidine-1-carbonyl)phenyl)quinoxaline-5-sulfonamide]
101 to 1000 nM	< 100 nM	< 100 nM	< 100 nM	O=C(c1ccc(NS(=O)(=O)c2cccc3cccnc23)cc1)N1CCC(O)(c2ccccc2F)CC1 [Compound 165, N-(4-(4-(2-fluorophenyl)-4-hydroxypiperidine-1-carbonyl)phenyl)quinoline-8-sulfonamide]
101 to 1000 nM	< 100 nM	< 100 nM	< 100 nM	O=C(c1ccc(NS(=O)(=O)c2cccc3cccnc23)cc1)N1CCC(O)(c2cc(F)ccc2Cl)CC1 [Compound 166]
101 to 1000 nM	< 100 nM	< 100 nM	101 to 1000 nM	COc1cc(NS(=O)(=O)c2cccc3cccnc23)ccc1C(=O)N1CCC(O)(c2ccccc2Cl)CC1 [Compound 170, N-(4-(4-(2-chlorophenyl)-4-hydroxypiperidine-1-carbonyl)-3-methoxyphenyl)quinoline-8-sulfonamide]
101 to 1000 nM	< 100 nM	< 100 nM	101 to 1000 nM	Cc1nc(C2(O)CCN(C(=O)c3ccc(NS(=O)(=O)c4cccc5cccnc45)cc3)CC2)ccc1F [Compound 171, N-(4-(4-(5-fluoro-6-methylpyridin-2-yl)-4-hydroxypiperidine-1-carbonyl)phenyl)quinoline-8-sulfonamide]
101 to 1000 nM	< 100 nM	< 100 nM	< 100 nM	O=C(c1ccc(NS(=O)(=O)c2cccc3cccnc23)cc1)N1CCC(O)(c2cccc(C(F)(F)F)n2)CC1 [Compound 174, N-[4-[4-hydroxy-4-[6-(trifluoromethyl)pyridin-2-yl]piperidine-1-carbonyl]phenyl]quinoline-8-sulfonamide]
101 to 1000 nM	< 100 nM	< 100 nM	< 100 nM	O=C(c1ccc(NS(=O)(=O)c2cccc3scnc23)cc1)N1CCC(O)(c2cccc(F)c2F)CC1 [Compound 178, N-(4-(4-(2,3-difluorophenyl)-4-hydroxypiperidine-1-carbonyl)phenyl)benzo[d]thiazole-4-sulfonamide]
101 to 1000 nM	< 100 nM	< 100 nM	< 100 nM	O=C(c1ccc(NS(=O)(=O)c2ccc(F)c3cccnc23)cc1)N1CCC(O)(c2ccccc2Cl)CC1 [Compound 179, N-(4-(4-(2-chlorophenyl)-4-hydroxypiperidine-1-carbonyl)phenyl)-5-fluoroquinoline-8-sulfonamide]
101 to 1000 nM	< 100 nM	< 100 nM	< 100 nM	O=C(c1ccc(NS(=O)(=O)c2cccc3cccnc23)cc1)N1CCC(O)(c2cnsc2)CC1 [Compound 180]
101 to 1000 nM	< 100 nM	< 100 nM	101 to 1000 nM	COc1ccccc1C1(O)CCN(C(=O)c2ccc(NS(=O)(=O)c3cccc4cccnc34)cc2)CC1 [Compound 184, N-(4-(4-hydroxy-4-(2-methoxyphenyl)piperidine-1-carbonyl)phenyl)quinoline-8-sulfonamide]
101 to 1000 nM	< 100 nM	< 100 nM	101 to 1000 nM	O=C(c1ccc(NS(=O)(=O)c2cccc3ccoc23)cc1)N1CCC(O)(c2ccccc2Cl)CC1 [Compound 186, N-(4-(4-(2-chlorophenyl)-4-hydroxypiperidine-1-carbonyl)phenyl)benzofuran-7-sulfonamide]

— US9108921B2, “Therapeutic compounds and compositions” (AGIOS PHARMACEUTICALS, INC, priority 2014, dated 2015)
